US11952388B2, “Crystal form of tri-cycle compound and application thereof” (FUJIAN AKEYLINK BIOTECHNOLOGY CO., LTD., priority 2018, dated 2024)
Read-outs that look alike come from different tables or passages of the source.

Assays:
proteins in human plasma = test: Plasma protein binding rate (equilibrium dialysis); type: in vitro ADME
Method: Objectives of Experiment: to determine the binding rate of test compound to proteins in human and CD-1 mouse plasma
Experimental operation: 796 μL of blank plasma was taken from human and CD-1 mouse, and 4 μL of test compound working solution (400 μM) or warfarin working solution (400 μM) was added to make the final concentrations of both test compound and warfarin in the plasma sample 2 μM. The sample was mixed thoroughly. The final concentration of DMSO in the organic phase was 0.5%; 50 μt of plasma samples of test compound and warfarin was pipetted into the sample receiving plate (in triplicate), and immediately the corresponding volume of blank plasma or buffer was added to make the final volume of each sample 100 μL and the volume ratio of plasma:dialysis buffer 1:1. Then 400 μL of stop solution is added to these samples. These samples would be used as TO samples for determination of recovery and stability. […] All samples were analyzed by LC/MS/MS after protein precipitation, and the protein binding rate and recovery rate was calculated with the formula: % Unbound (unbound rate)=100*FC/TC, % Bound (bound rate)=100-% Unbound, % Recovery (recovery rate)=100*(FC+TC)/T0.

[1] = Pharmacokinetics of oral administration and intravenous injection in Beagle; type: in vivo, beagle dogs
Method: 3. Study on the Pharmacokinetics of Oral Administration and Intravenous Injection of the Compound Represented by Formula (I) in Beagle The compound represented by formula (I) was mixed with 5% DMSO/55% polyethylene glycol 400/40% aqueous solution, vortexed and sonicated to obtain an approximately clear solution of 1 mg/mL, which was then filtered by a microporous membrane for later use. Male beagle dogs weighed about 10 kg were selected and the candidate compound solution was administered intravenously at a dose of 1 mg/kg. The compound represented by formula (I) was mixed with 10% solutol aqueous solution, vortexed and sonicated to obtain an approximately clear solution of 2 mg/mL, which was then filtered through a microporous membrane for later use. Male beagle dogs weighed about 10 kg were selected and the candidate compound solution was orally administered at a dose of 10 mg/kg. Whole blood was collected at a certain period of time to prepare plasma, drug concentration was analyzed by LC-MS/MS method, and pharmacokinetic parameters was calculated by Phoenix WinNonlin software (Pharsight, USA). Note: T1/2 means half-life; Vdss means apparent volume of distribution; Cl means clearance rate; AUC0_last means area below the drug-time curve; Tmax means peak time; Cmax means peak concentration; F % means oral bioavailability; iv means intravenous injection; PO means oral administration; mpk means mg/kg.

hepatitis B virus = test: In vivo drug efficacy, AAV/HBV mouse model; settings: AAV/HBV mouse model, 15, 50, 150 mg/kg BID PO, 28 days
Method: FIG. 7: The level of Hepatitis B virus DNA in plasma; broken line 1 means blank control, 10% solutol aqueous solution was administered quaque die (QD), per os (PO); broken line 2 means that WX-325 was administrated at a dose of 15 mg/kg bis in die (BID) at an interval of 8 hours, per os (PO); the broken line 3 means that WX-325 was administrated at a dose of 50 mg/kg bis in die (BID) at an interval of 8 hours, per os (PO); broken line 5 means that WX-325 was administrated at a dose of 150 mg/kg bis in die (BID) at an interval of 8 hours, per os (PO); broken line 6 means that tenofovir (TDF) of the positive compound was administrated at a dose of 15 mg/kg bis in die (BID) at an interval of 8 hours, per os (PO); LLOQ means lower limit of detection; Note: WX-325 in FIG. 7 means the compound represented by formula (I) of the present invention. […]
Experimental operation: The day of the first administration was designated as day 0, the day before administration was designated as day −1, the day after administration was designated as day 1, and so on. […] The content of HBV DNA, HBeAg and HBsAg were detected using the serum. […] Both drugs were administered for 28 days, and blood samples were taken on day 3, 7, 10 and 28 after administration, and the level of HBV DNA in plasma was detected by qPCR. […]

[2] = male, beagle, dog, plasma, 1 mg/kg, Dogs, iv 1 mpk
[3] = male, beagle, dog, plasma, 10 mg/kg, Dogs, po 10 mpk

With Cc1cc2n(c1)S(=O)(=O)c1ccc(C(=O)NCC[C@H]3COCCO3)cc1NC2=O [compound represented by formula (I)] the “binding rate to plasma proteins (conclusion in words)” value (proteins in human plasma) was “lower binding rate”, the “Binding rate of plasma protein” value (proteins in human plasma; 2 μM) was 81% and the “pharmacokinetics (conclusion in words)” value ([1]; Beagle) was “good single or partial index of pharmacokinetics”. The clearance [1, 2] was 15.6 mL/min/kg, the half-life [1, 2] was 2.87 h and the AUC(0-t) ([1]; male, beagle, dog, plasma, 1 mg/kg, Dogs, iv 1 mpk, read-out: AUC0-last) was 2.68 µM·h. The Vd ([1]; male, beagle, dog, plasma, 1 mg/kg, Dogs, iv 1 mpk, read-out: Vdss) was 2.95 L/kg, the Cmax [1, 3] was 5.85 µM and the Tmax [1, 3] was 1.67 h. For the same compound, the bioavailability [1, 3] was 126%, the AUC(0-t) ([1]; male, beagle, dog, plasma, 10 mg/kg, Dogs, po 10 mpk, read-out: AUC0-24h) was 33.2 µM·h and the “in vivo efficacy, HBV DNA in plasma and liver (conclusion in words)” value (hepatitis B virus) was “good in vivo efficacy and a dose-dependent effect”.
